The source of these data is US20130309306A1, “INTRAPULMONARY BENZODIAZEPINE FOR THE TREATMENT AND PREVENTION OF SEIZURES” (priority 2010, published 2013).

Assay [1] concerns picrotoxin-induced seizure. Description: Picrotoxin seizure threshold test in mice (intravenous infusion). Format: in vivo.
For a further assay, the system named is PTZ-induced seizures. Description: PTZ seizure threshold test, tonic extension endpoint, Example 2. Format: in vivo, mice. The procedure:
NIH Swiss mice (22-30 g) were kept in a vivarium under controlled environmental conditions (temperature, 22-26° C.; humidity, 40-50%) with an artificial 12-h light/dark cycle. Wood chips were used in all cages. Experiments were performed during the light phase of the light/dark cycle after a minimum 30-min period of acclimation to the experimental room. The animal facilities were fully accredited by the Association for Assessment and Accreditation of Laboratory Animal Care. All studies were performed under protocols approved by the Animal Care and Use Committee of the University of California, Davis in strict compliance with the Guide for the Care and Use of Laboratory Animals of the National Research Council (National Academy Press, Washington, D.C.; on the internet at nap.edu/readingroom/books/labrats/).
Midazolam was administered as a commercially available injectable solution (midazolam hydrochloride, 10 mg/10 ml; APP Pharmaceuticals, Schaumburg, Ill., USA) containing sodium chloride (0.8% w/v), disodium edetate (0.01% w/v), benzyl alcohol as preservative (1% v/v) with HCl to adjust the pH 3-3.6. Pentylenetetrazol (PTZ) (Sigma-Aldrich, St. Louis, Mo., USA) was dissolved in 0.9% w/v saline. The remaining test substances were all obtained from Tocris Bioscience (Ellisville, Mo., USA) except for clonazepam, which was from Sigma-Aldrich. Finasteride was dissolved in 25% hydroxypropyl-β-cyclodextrin (Trappsol; Cyclodextrin Technologies Development, High Springs, Fla., U.S.A.). Metyrapone was dissolved in double distilled water and PK 11195 and clonazepam were suspended in 1% Tween 80 and adjusted to volume with saline.
PTZ seizure threshold was determined according to a protocol used previously in our laboratory (Dhir et al., 2011). Intravenous PTZ elicits a sequence of seizure signs beginning with twitch and progressing to clonus and tonic limb extension. In the present study, tonic extension was used as the endpoint. […] It is noteworthy that this is the endpoint originally used in studies characterizing the actions of midazolam against PTZ seizures in mice (Pieri, 1983 Br J Clin Pharmacol 16 Suppl 1: 17S-27S). A 27 gauge-¾ inch “butterfly” needle was inserted into the lateral tail vein and the needle was secured with a narrow piece of adhesive tape. The animal was placed inside a 2 L glass beaker with free aeration from the top and allowed to move freely. The needle was connected by polyethylene tubing to a Beckton, Dickinson 1 ml syringe mounted on an infusion pump (Model ‘11’ plus syringe pump; Harvard Apparatus, Holliston, Mass.). PTZ solution (10 mg/ml) was infused at a constant rate of 0.5 ml/min. The infusion was stopped at 3 min or at the onset of tonic extension, whichever occurred first. The threshold value (mg/kg) for tonic extension was determined according to the formula: (infusion duration [sec]×infusion rate [ml/min]×PTZ concentration [mg/ml]×1000)/(60 [sec]×weight of mouse [g]).
In an initial experiment, the dose-response relationship for midazolam elevation of seizure threshold was assessed at doses of 100 μg/kg to 5 mg/kg (15 min pretreatment time). […] PK 11195 was used at a dose (15 mg/kg) as in the study of Ugale et al. (2004 Brain Res. 2004 Oct. 8; 1023(1):102-11). Clonazepam was administered at a dose of 100 μg/kg (Akula et al., 2009). The volume of all intraperitoneal injections was 10 ml/kg.
Results are expressed as mean±S.E.M.; the significance of the difference in the responses of treatment groups with respect to control is based on one-way analysis of variance (ANOVA) followed by specific post-hoc comparisons using Tukey's test. Differences are considered statistically significant when the probability of type I error was less than 0.05.

Regarding `Cc1ncc2n1-c1ccc(Cl)cc1C(c1ccccc1F)=NC2` [Midazolam, midazolam], in assay [1] (intraperitoneal 100 μg/kg, pretreatment 10 min), the “seizure threshold, picrotoxin infusion” value was “effective in enhancing the seizure threshold for only clonic phase and ineffective against tonic extension”. In addition, in assay [1] (intraperitoneal 250, 500 and 1000 μg/kg, pretreatment 10 min (FIG. 3A)), the “thresholds for all seizure signs, picrotoxin infusion” value is “significant elevation”. Moreover, in assay [1] (intratracheal 25 and 50 μg/kg, pretreatment 10 min (FIG. 3B)), the “seizure thresholds, picrotoxin infusion” value is listed as “effective”. For the same compound, the “PTZ threshold for tonic extension vs vehicle” value in the assay on PTZ-induced seizures (intraperitoneal 500 to 5000 μg/kg (significant), 15 min before PTZ infusion (FIG. 7)) is “dose-dependent elevation in threshold”. The “increase in threshold for tonic extension (vs vehicle only control)” value in the assay with PTZ-induced seizures (midazolam 500 μg/kg i.p., 15 min before i.v. PTZ infusion, in the absence of finasteride) turned out to be 2.3 fold. In addition, in the assay with PTZ-induced seizures (midazolam 100 or 200 μg/kg intratracheal, 10 min before PTZ, in the absence of flumazenil (FIG. 12)), the “PTZ seizure threshold vs vehicle” value is on record as “significant increase in the seizure threshold”.
